The values below come from patent publication EP2649989B1, “Method for preparing a solid dispersion, solid dispersion obtained thereby and use thereof” (King Saud University, priority 2012, dated 2013).

The data set is described as follows: Solubility in water according to the Higuchi-Connor method. The conditions noted are these: thermodynamic from solid; excess amount added to 10 ml of water, shaken on mechanical shaker for 48 hours, filtered, dissolved drug content; read-out: Indomethacin Solubility in water. Format: physicochemical. How it is done:
The solubility of the drug (indomethacin) and solid dispersions of the drug according to the invention was examined in water according to the Higuchi-Connor method, see "Advances in Analytical Chemical Chemistry and Instrumentation" Vol. 4, New York, Wiley-Interscience 1965, page 117-212. An excess amount of drug, comparative solid dispersions and inventive solid dispersions was added to 10 ml of water, separately. The dispersions were shaken on mechanical shaker for 48 hours. Afterwards, the samples were withdrawn, filtered, diluted and analyzed to calculate the dissolved drug content.

≈ marks a conversion by molar mass, not a printed value.

On to `COc1ccc2c(c1)c(CC(=O)O)c(C)n2C(=O)c1ccc(Cl)cc1` [Indomethacin], for which the solubility (as a rule, how much of the substance goes into solution per volume) at 48 h worked out at 152 µg/mL (≈ 425 µM).
